# Reference: US11993599B2, “Therapeutic compounds” (Genentech, Inc., priority 2021, dated 2024)
# Experiments:
# [1] = target: T1, BRG1 (Homo sapiens, UniProt P51532); test: Immunofluorescence assay for BRG1 degradation in SW1573 cells; type: cell-based; conditions: 20 hours incubation; for DC50: immunofluorescence mean nuclear signal, read-out: BRG1 IF Degradation IC50; for Dmax: SW1573, 20 h, normalized to a known degrader control, read-out: BRG1 IF Degradation Sinf (%)
# T1 construct: either BRM primary antibody (Cell signaling Cat #11966) or BRG primary antibody (Abcam, ab 110641); endogenous in cells; host or cells: SW1573
# T1 sequence (P51532 whole entry): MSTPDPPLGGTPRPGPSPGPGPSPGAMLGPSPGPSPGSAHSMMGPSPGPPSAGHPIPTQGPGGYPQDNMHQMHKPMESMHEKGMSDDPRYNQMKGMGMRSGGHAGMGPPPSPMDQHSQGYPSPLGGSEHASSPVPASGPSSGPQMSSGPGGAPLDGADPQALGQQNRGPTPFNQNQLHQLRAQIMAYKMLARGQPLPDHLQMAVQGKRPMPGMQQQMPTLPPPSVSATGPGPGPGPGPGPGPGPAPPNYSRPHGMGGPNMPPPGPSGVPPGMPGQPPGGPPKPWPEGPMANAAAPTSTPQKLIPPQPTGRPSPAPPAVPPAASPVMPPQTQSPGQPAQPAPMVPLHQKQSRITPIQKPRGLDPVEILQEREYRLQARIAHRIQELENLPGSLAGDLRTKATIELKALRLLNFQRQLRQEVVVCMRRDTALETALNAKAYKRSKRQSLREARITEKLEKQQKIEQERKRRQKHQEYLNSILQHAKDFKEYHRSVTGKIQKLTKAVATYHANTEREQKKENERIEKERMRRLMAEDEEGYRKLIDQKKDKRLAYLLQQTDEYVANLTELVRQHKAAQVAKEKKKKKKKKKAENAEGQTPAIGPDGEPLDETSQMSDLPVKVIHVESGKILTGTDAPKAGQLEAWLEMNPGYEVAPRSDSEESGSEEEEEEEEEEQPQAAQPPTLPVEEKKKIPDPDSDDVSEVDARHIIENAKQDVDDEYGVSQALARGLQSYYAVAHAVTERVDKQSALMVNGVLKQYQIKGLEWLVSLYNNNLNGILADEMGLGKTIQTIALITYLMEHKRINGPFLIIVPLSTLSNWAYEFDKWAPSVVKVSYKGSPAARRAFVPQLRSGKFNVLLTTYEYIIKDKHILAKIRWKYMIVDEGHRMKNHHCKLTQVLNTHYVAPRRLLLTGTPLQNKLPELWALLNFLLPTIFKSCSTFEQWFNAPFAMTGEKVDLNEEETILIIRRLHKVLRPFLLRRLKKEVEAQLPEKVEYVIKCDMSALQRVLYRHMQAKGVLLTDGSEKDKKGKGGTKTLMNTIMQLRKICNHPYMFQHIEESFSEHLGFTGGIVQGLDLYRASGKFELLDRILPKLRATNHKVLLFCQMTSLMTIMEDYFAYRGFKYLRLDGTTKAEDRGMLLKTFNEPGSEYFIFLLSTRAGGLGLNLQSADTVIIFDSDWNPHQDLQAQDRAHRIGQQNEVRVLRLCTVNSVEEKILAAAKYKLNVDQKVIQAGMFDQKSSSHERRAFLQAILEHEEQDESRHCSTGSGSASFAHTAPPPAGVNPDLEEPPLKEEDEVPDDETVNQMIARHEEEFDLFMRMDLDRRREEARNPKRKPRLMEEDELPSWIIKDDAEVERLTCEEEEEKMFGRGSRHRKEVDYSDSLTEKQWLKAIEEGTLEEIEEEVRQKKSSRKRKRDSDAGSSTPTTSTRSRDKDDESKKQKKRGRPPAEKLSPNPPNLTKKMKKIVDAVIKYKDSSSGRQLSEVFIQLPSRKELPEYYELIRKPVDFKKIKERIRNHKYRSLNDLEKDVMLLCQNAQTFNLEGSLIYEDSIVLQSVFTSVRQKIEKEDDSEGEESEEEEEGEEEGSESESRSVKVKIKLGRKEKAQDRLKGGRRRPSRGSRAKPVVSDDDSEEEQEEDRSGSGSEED
# Procedure: (§1) Example B-2: Immunofluorescence Assay for BRM and BRG1 Degraders
# (§2) SW1573 cells were seeded at 3000 cells/well in 384 well plates. The next day, compounds were added using an Echo dispenser. After 20 hours of incubation with compound, cells were fixed with 4% formaldehyde then permeabilized with 0.2% Triton X-100 and blocked with 10% FCS. Fixed and permeabilized cells were treated overnight at 4° C. with either BRM primary antibody (Cell signaling Cat #11966) or BRG primary antibody (Abcam, ab 110641). Finally, cells were treated with fluorescently labeled secondary antibodies for 1 hr (Donkey anti-Rabbit IgG AF488, Life Technologies, A21206) and Hoechst nuclear stain (#H3569) was added for 30 minutes. Cells were washed with PBS in between each step and before imaging on an Opera Phenix microscope (Perkin Elmer). Harmony software (Perking Elmer) was used to quantify the mean nuclear signaling intensity of BRM or BRG signaling per cell in each well. Dose responses were determined from the concentration dependent response of mean nuclear signal intensity with data normalized to a known degrader control. Dose response curves were fit to a floating maximum to allow for calculation of the Dmax.
# (§3) Note that, in Table 5, the “Compound Number” corresponds to that used in Table 1. In Table 5, for BRM and BRG1 IF degradation IC50 (μM): A indicates <0.010 μM, B indicates 0.010-0.10 μM, and C indicates >0.10 μM; and for BRM and BRG1 IF degradation Sinf % D indicates 0-−30%, E indicates −30%-−70%, F indicates −71%-−120% and ND indicates the value was not determined.
# [2] = target: BRM (Homo sapiens, UniProt P51531); test: Immunofluorescence assay for BRM degradation in SW1573 cells; type: cell-based; parameters: treated overnight at 4° C. with either BRM primary antibody (Cell signaling Cat #11966) or BRG primary antibody; endogenous in cells; host or cells: SW1573; conditions: 20 hours incubation; for DC50: immunofluorescence mean nuclear signal, read-out: BRM IF Degradation IC50; for BRM IF Degradation Sinf (%): normalized to a known degrader control
# BRM, sequence (P51531 whole entry): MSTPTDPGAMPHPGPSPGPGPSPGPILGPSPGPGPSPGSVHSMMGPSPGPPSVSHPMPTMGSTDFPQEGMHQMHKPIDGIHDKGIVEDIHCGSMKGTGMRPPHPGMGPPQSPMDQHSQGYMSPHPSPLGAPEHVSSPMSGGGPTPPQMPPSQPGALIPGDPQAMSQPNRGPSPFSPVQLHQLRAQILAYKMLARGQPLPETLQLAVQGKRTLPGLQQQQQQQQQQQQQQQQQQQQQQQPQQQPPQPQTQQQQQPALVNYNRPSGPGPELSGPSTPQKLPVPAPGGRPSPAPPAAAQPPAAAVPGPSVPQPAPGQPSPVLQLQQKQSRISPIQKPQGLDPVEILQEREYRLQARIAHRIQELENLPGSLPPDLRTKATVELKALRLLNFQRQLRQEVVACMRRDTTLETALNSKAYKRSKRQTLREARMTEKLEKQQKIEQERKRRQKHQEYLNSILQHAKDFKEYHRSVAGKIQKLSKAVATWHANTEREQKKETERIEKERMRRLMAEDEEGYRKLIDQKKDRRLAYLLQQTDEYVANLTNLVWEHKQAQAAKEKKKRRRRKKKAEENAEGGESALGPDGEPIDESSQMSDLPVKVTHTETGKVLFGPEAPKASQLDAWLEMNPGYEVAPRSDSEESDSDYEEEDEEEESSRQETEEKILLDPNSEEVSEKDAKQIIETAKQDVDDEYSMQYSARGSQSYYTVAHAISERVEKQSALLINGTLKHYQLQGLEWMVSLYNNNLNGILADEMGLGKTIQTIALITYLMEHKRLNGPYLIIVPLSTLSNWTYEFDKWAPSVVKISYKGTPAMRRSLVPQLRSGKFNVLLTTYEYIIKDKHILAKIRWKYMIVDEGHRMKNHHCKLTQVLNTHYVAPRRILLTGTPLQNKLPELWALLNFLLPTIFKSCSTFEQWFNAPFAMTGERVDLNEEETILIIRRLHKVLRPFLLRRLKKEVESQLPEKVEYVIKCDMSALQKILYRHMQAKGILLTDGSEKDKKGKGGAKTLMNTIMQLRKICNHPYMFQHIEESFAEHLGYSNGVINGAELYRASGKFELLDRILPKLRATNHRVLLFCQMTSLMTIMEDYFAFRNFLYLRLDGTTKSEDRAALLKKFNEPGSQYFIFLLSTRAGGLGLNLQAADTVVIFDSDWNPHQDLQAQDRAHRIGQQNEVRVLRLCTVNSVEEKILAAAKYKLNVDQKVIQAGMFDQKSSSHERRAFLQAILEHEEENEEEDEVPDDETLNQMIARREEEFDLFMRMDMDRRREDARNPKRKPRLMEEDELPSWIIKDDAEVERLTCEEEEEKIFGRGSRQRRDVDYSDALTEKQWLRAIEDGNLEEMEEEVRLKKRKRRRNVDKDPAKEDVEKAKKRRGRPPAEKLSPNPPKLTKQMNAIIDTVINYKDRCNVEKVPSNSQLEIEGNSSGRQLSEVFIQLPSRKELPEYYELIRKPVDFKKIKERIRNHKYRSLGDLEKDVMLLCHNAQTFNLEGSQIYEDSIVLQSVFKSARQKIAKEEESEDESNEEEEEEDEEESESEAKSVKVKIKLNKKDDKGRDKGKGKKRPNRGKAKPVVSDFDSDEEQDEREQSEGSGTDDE
# Procedure: as §1, §2, §3
SMILES,DC50 [1] [nM],Dmax [1] [%],DC50 [2] [nM],BRM IF Degradation Sinf (%) [2]
"CN1CCCN(CC#Cc2cc(N3C4CCC3CN(c3cc(-c5ccccc5O)nnc3N)C4)ccn2)CC1 [Compound 47, 2-[6-amino-5-[8-[2-[3-(4-methyl-1,4-diazepan-1-yl)prop-1-ynyl]-4-pyridyl]-3,8-diazabicyclo[3.2.1]octan-3-yl]pyridazin-3-yl]phenol]",> 100,0 to 30,> 100,E (E indicates −30%-−70%)
"CC[C@@H]1COCCN1CC#Cc1cc(N2C3CCC2CN(c2cc(-c4ccccc4O)nnc2N)C3)ccn1 [Compound 48, 2-[6-amino-5-[8-[2-[3-[(3R)-3-ethylmorpholin-4-yl]prop-1-ynyl]-4-pyridyl]-3,8-diazabicyclo[3.2.1]octan-3-yl]pyridazin-3-yl]phenol]",10 to 100,0 to 30,10 to 100,E (E indicates −30%-−70%)
"Nc1nnc(-c2ccccc2O)cc1N1CC2CCC(C1)N2c1ccnc(C#CCN2CC3(CCOCC3)C2)c1 [Compound 49, 2-[6-amino-5-[8-[2-[3-(7-oxa-2-azaspiro[3.5]nonan-2-yl)prop-1-ynyl]-4-pyridyl]-3,8-diazabicyclo[3.2.1]octan-3-yl]pyridazin-3-yl]phenol]",< 10,30 to 70,< 10,F (F indicates −71%-−120%)
"Nc1nnc(-c2ccccc2O)cc1N1CC2CCC(C1)N2c1ccnc(C#CCN2CCCC(O)C2)c1 (stereo not drawn) [Compound 50, 1-[3-[4-[3-[3-amino-6-(2-hydroxyphenyl)pyridazin-4-yl]-3,8-diazabicyclo[3.2.1]octan-8-yl]-2-pyridyl]prop-2-ynyl]piperidin-3-ol]",> 100,30 to 70,10 to 100,E (E indicates −30%-−70%)
"CN(CC#Cc1cc(N2C3CCC2CN(c2cc(-c4ccccc4O)nnc2N)C3)ccn1)C1CCS(=O)(=O)C1 (stereo not drawn) [Compound 51, 2-[6-amino-5-[8-[2-[3-[(1,1-dioxothiolan-3-yl)-methyl-amino]prop-1-ynyl]-4-pyridyl]-3,8-diazabicyclo[3.2.1]octan-3-yl]pyridazin-3-yl]phenol]",> 100,30 to 70,> 100,E (E indicates −30%-−70%)
"Nc1nnc(-c2ccccc2O)cc1N1CC2CCC(C1)N2c1ccnc(C#CCN2CCC(O)C2)c1 (stereo not drawn) [Compound 52, 1-[3-[4-[3-[3-amino-6-(2-hydroxyphenyl)pyridazin-4-yl]-3,8-diazabicyclo[3.2.1]octan-8-yl]-2-pyridyl]prop-2-ynyl]pyrrolidin-3-ol]",10 to 100,30 to 70,10 to 100,E (E indicates −30%-−70%)
"Nc1nnc(-c2ccccc2O)cc1N1CC2CCC(C1)N2c1ccnc(C#CCN2CCn3ccnc3C2)c1 [Compound 53, 2-[6-amino-5-[8-[2-[3-(6,8-dihydro-5H-imidazo[1,2-a]pyrazin-7-yl)prop-1-ynyl]-4-pyridyl]-3,8-diazabicyclo[3.2.1]octan-3-yl]pyridazin-3-yl]phenol]",10 to 100,0 to 30,10 to 100,E (E indicates −30%-−70%)
"Nc1nnc(-c2ccccc2O)cc1N1CC2CCC(C1)N2c1ccnc(C#CCN2CC3CNCC3C2)c1 (stereo not drawn) [Compound 54, 2-[5-[8-[2-[3-(2,3,3a,4,6,6a-hexahydro-1H-pyrrolo[3,4-c]pyrrol-5-yl)prop-1-ynyl]-4-pyridyl]-3,8-diazabicyclo[3.2.1]octan-3-yl]-6-amino-pyridazin-3-yl]phenol]",> 100,30 to 70,> 100,F (F indicates −71%-−120%)
"Nc1nnc(-c2ccccc2O)cc1N1CC2CCC(C1)N2c1ccnc(C#CCN2CCCCC2CO)c1 (stereo not drawn) [Compound 55, 2-[6-amino-5-[8-[2-[3-[2-(hydroxymethyl)-1-piperidyl]prop-1-ynyl]-4-pyridyl]-3,8-diazabicyclo[3.2.1]octan-3-yl]pyridazin-3-yl]phenol]",10 to 100,30 to 70,10 to 100,E (E indicates −30%-−70%)
"Nc1nnc(-c2ccccc2O)cc1N1CC2CCC(C1)N2c1ccnc(C#CCN2Cc3cccnc3C2)c1 [Compound 56, 2-[6-amino-5-[8-[2-[3-(5,7-dihydropyrrolo[3,4-b]pyridin-6-yl)prop-1-ynyl]-4-pyridyl]-3,8-diazabicyclo[3.2.1]octan-3-yl]pyridazin-3-yl]phenol]",> 100,0 to 30,10 to 100,E (E indicates −30%-−70%)
"CC1COCCN1CC#Cc1cc(N2C3CCC2CN(c2cc(-c4ccccc4O)nnc2N)C3)ccn1 (stereo not drawn) [Compound 57, 2-[6-amino-5-[8-[2-[3-(3-methylmorpholin-4-yl)prop-1-ynyl]-4-pyridyl]-3,8-diazabicyclo[3.2.1]octan-3-yl]pyridazin-3-yl]phenol]",> 100,–,10 to 100,E (E indicates −30%-−70%)
"Nc1nnc(-c2ccccc2O)cc1N1CC2CCC(C1)N2c1ccnc(C#CCN2CCCCCC2)c1 [Compound 58, 2-(6-amino-5-(8-(2-(3-(azepan-1-yl)prop-1-yn-1-yl)pyridin-4-yl)-3,8-diazabicyclo[3.2.1]octan-3-yl)pyridazin-3-yl)phenol]",< 10,30 to 70,< 10,F (F indicates −71%-−120%)
"C[C@@H]1CN(CC#Cc2cc(N3C4CCC3CN(c3cc(-c5ccccc5O)nnc3N)C4)ccn2)C[C@H](C)O1 [Compound 59, 2-[6-amino-5-[8-[2-[3-[(2S,6R)-2,6-dimethylmorpholin-4-yl]prop-1-ynyl]-4-pyridyl]-3,8-diazabicyclo[3.2.1]octan-3-yl]pyridazin-3-yl]phenol]",< 10,0 to 30,10 to 100,E (E indicates −30%-−70%)
"Nc1nnc(-c2ccccc2O)cc1N1CC2CCC(C1)N2c1ccnc(C#CCN2C[C@H]3CCCC[C@H]3C2)c1 [Compound 60, 2-[5-[8-[2-[3-[(3aS,7aR)-1,3,3a,4,5,6,7,7a-octahydroisoindol-2-yl]prop-1-ynyl]-4-pyridyl]-3,8-diazabicyclo[3.2.1]octan-3-yl]-6-amino-pyridazin-3-yl]phenol]",< 10,30 to 70,< 10,E (E indicates −30%-−70%)
"CC1CCCN(CC#Cc2cc(N3C4CCC3CN(c3cc(-c5ccccc5O)nnc3N)C4)ccn2)C1 (stereo not drawn) [Compound 61, 2-[6-amino-5-[8-[2-[3-(3-methyl-1-piperidyl)prop-1-ynyl]-4-pyridyl]-3,8-diazabicyclo[3.2.1]octan-3-yl]pyridazin-3-yl]phenol]",< 10,30 to 70,< 10,E (E indicates −30%-−70%)
"CC1(O)CCN(CC#Cc2cc(N3C4CCC3CN(c3cc(-c5ccccc5O)nnc3N)C4)ccn2)C1 (stereo not drawn) [Compound 62, 1-[3-[4-[3-[3-amino-6-(2-hydroxyphenyl)pyridazin-4-yl]-3,8-diazabicyclo[3.2.1]octan-8-yl]-2-pyridyl]prop-2-ynyl]-3-methyl-pyrrolidin-3-ol]",< 10,30 to 70,< 10,E (E indicates −30%-−70%)
"Nc1nnc(-c2ccccc2O)cc1N1CC2CCC(C1)N2c1ccnc(C#CCN2CC3CCCC3C2)c1 (stereo not drawn) [Compound 63, 2-[5-[8-[2-[3-(3,3a,4,5,6,6a-hexahydro-1H-cyclopenta[c]pyrrol-2-yl)prop-1-ynyl]-4-pyridyl]-3,8-diazabicyclo[3.2.1]octan-3-yl]-6-amino-pyridazin-3-yl]phenol]",< 10,30 to 70,< 10,F (F indicates −71%-−120%)
"CC[C@H]1COCCN1CC#Cc1cc(N2C3CCC2CN(c2cc(-c4ccccc4O)nnc2N)C3)ccn1 [Compound 64, 2-[6-amino-5-[8-[2-[3-[(3S)-3-ethylmorpholin-4-yl]prop-1-ynyl]-4-pyridyl]-3,8-diazabicyclo[3.2.1]octan-3-yl]pyridazin-3-yl]phenol]",10 to 100,0 to 30,10 to 100,E (E indicates −30%-−70%)
"Nc1nnc(-c2ccccc2O)cc1N1CC2CCC(C1)N2c1ccnc(C#CCN2CCC[C@@H]2CO)c1 [Compound 65, 2-[6-amino-5-[8-[2-[3-[(2R)-2-(hydroxymethyl)pyrrolidin-1-yl]prop-1-ynyl]-4-pyridyl]-3,8-diazabicyclo[3.2.1]octan-3-yl]pyridazin-3-yl]phenol]",10 to 100,0 to 30,< 10,E (E indicates −30%-−70%)
